For orientation: IC50 means the concentration that gives 50% inhibition.

The values below come from US4652554A, “Nitro-substituted 1-β-D-arabinofuranosylcytosines” (St. Jude Children's Research Hospital, priority 1982, dated 1987).

Data set [1] deals with Cytidine deaminase (Mus musculus, UniProt P56389). The data set can be described thus: Substrate specificity of cytidine deaminase (spectrophotometric deamination assay). In kind it is biochemical. The conditions noted are these: for Relative initial rate of deamination: 2.5×10^-4 M substrate, 1.3 mg enzyme protein, pH 7.0, 37° C., cytidine = 100. The protocol: Thus, mouse kidney acetone powder (3 g. obtained from Sigma Chemical Co., St. Louis, Mo.) was extracted at 55°-60° C. for 5 minutes with phosphate buffer (pH 8.0, 0.05M). The extract was filtered through four layers of guaze bandage, and the remaining colloidal materials were removed by centrifugation at 20,000 g. for 10 minutes. The supernatant was then filtered through a Nalgene filter unit (0.45 μm grid membrane) to give a clear yellowish filtrate that was adjusted to 40% saturation by the addition of solid ammonium sulfate (24 g/100 ml. of filtrate) with stirring at room temperature, and stirring was continued for 30 minutes. After removal of the precipitate by centrifugation (20,000 g. for 30 minutes), the active supernatant was adjusted to 70% saturation by further addition of ammonium sulfate (24 g/100 ml of supernatant). The resulting precipitate, recovered by centrifugation (20,000 g. for 30 minutes), was dissolved in 4 ml. of phosphate buffer (pH 7.0, 0.05M) and dialyzed twice against 2 liters of the same buffer.
Protein content was determined by Bio-Rad Protein Assay. […] All reaction mixtures contained 2.5×10^-4 M of substrate and 1.3 mg of enzyme protein in a final volume of 1.0 ml. of phosphate buffer (pH 7.0, 0.05M).

The test system of data set [2] is experimental tumors in animals. Conditions: cited from earlier work.
In data set [3] the test system is CCFR-CEM/ara-C (mutant). The data set can be described thus: Cytotoxicity (cell growth inhibition), ara-C resistant mutant. Format: cell-based. The conditions noted are these: Homo sapiens, read-out: IC50 (molar conc. for 50% inhib. of cell growth).
In data set [4] the test system is CCRF-CEM (T-cells). The data set can be described thus: Cytotoxicity (cell growth inhibition), CCRF-CEM. In kind it is cell-based. The conditions noted are these: Homo sapiens, read-out: IC50 (molar conc. for 50% inhib. of cell growth).
In data set [5] the test system is murine leukemia L1210. Nature of the data set: In vivo L1210 leukemia cell number in peritoneal cavity 24 h after single i.p. dose. Also on record: species or system murine (B6D2F1/J female mice). Conditions: 720 mg/kg i.p., 24 hours after treatment (day 6). The protocol:
1-(2-O-Nitro-β-D-arabinofuranosyl)cytosine (nitrara-C) is a powerful anti-neoplastic agent particularly against the leukemias.
B6D2F1 /J female mice weighing ~20 g. were inoculated intraperitoneally with 1×10^5 cells of the murine leukemia, L1210. Five days later, the leukemia cells were washed from the peritoneal cavities of untreated mice, and baseline counts were made. Concomitantly, other groups of mice were treated i.p. with either ara-C.HCl or nitrara-C.HCl. Each drug was administered at a level of 720 mg/kg in a volume of 0.01 ml/gm of mouse weight. Twenty-four hours later, on day 6, cells were washed from the peritoneal cavities of both treated and NaCl-injected mice, and cell numbers were compared.
Five days after the intraperitoneal inoculation of B6D2F1 /J mice with one hundred thousand cells of leukemia L1210, an average of 255 million cells were recovered from the abdominal compartments of untreated mice. Twenty-four hours later, this value had increased by 52 percent for NaCl-injected mice, but had declined by 90 percent for animals that received 720 mg/kg of nitrara-C and 77% for ara-C treated group.

Data set [6] relates to MOLT-4 (T-cells). Nature of the data set: Cytotoxicity (cell growth inhibition), MOLT-4. In kind it is cell-based. Conditions: Homo sapiens, read-out: IC50 (molar conc. for 50% inhib. of cell growth).
Data set [7] concerns RPMI-6410 (B-cells). The data set can be described thus: Cytotoxicity (cell growth inhibition), RPMI-6410. Format: cell-based. Conditions: Homo sapiens, read-out: IC50 (molar conc. for 50% inhib. of cell growth).
The test system of data set [8] is human leukemia cells. The data set can be described thus: Cytotoxicity to human leukemia cells in culture, summary. The protocol: Experiments were also carried out to determine the growth potential of cultured human lymphoblasts in the presence of nitrara-C in tissue culture.
The subject of data set [9] is L1210. The data set can be described thus: Life-span of mice inoculated i.p. with L1210 (3×10^6 cells), treatment started 24 h after implantation. In kind it is in vivo, murine (B6D2F1/J female mice). Conditions: for indefinite cures (60 day survivors): 5 mice per group; for extension of lifespan: 2000 mg/kg. The protocol:
In a similar further study, B6D2F1 /J female mice were inoculated i.p. with 3×10^6 cells of L1210. Treatment was started 24 hours after tumor implantation. Nitrara-C hydrochloride treatment regimens were as follows:
Injections of 0.9 percent saline were used as a control.
On regimen 1, statistically significant increase in life-span was obtained with dosages higher than 34 mg/kg.

A short description of data set [10]: Effect of cytidine deaminase on cytotoxicity for CCRF-CEM cells. Conditions: cytidine deaminase.
Data set [11] concerns CCRF-CEM cells. The data set is described as above. Conditions: Homo sapiens, CCRF-CEM.
The mark [12] stands for this setting: human leukemia cells in culture.

Where two headings read alike, the source gives them in different places.

In the case of `Nc1ccn([C@H]2C[C@H](O)[C@@H](CO)O2)c(=O)n1` [2'-Deoxycytidine, reference compound], the “Relative initial rate of deamination” value in data set [1] came out at 39.
Take `Nc1ccn([C@@H]2O[C@H](CO)[C@@H](O)[C@@H]2O)c(=O)n1` [Ara-C, 1-β-D-arabinofuranosylcytosine]: the “activity in experimental tumors (in words)” value in data set [2] is reported as “active in several experimental tumors in animals”. Besides, the IC50 in data set [3] (48 h) was found to be 100 µM; in [4] (CCRF-CEM, 48 h) it was 0.02 µM; in data set [6] (MOLT-4, 48 h), 0.01 µM; in [7] (RPMI 6410, 48 h) it was 0.06 µM. Also, the “decline in number of L1210 cells recovered from abdominal compartment” value in [5] came to 77%. Besides, the “dependence of cytotoxicity on phosphorylation (in words)” value in data set [8] was “cytotoxicity depends on phosphorylation”.
For the molecule `Cl.Nc1ccn([C@@H]2O[C@H](CO)[C@@H](O)[C@@H]2O[N+](=O)[O-])c(=O)n1` [Nitrara-C hydrochloride, 1-(2-O-Nitro-β-D-arabinofuranosyl)cytosine hydrochloride], the minimal effective dose in data set [9] (Mus musculus, L1210, ip, 168 h, regimen 1 (daily for 7 days), read-out: dosages giving statistically significant increase in life-span) is more than 34 mg/kg. In [9] (any of the above regimens at the highest dosages), the toxic deaths result is given as “Toxic deaths were not seen”. For the same molecule, in data set [9] (regimen 1 (daily for 7 days), 208 mg/kg), the extension of life-span is reported as 162%. Moreover, the “indefinite cures (60 day survivors)” value in data set [9] (regimen 1 (daily for 7 days), 259 mg/kg) is listed as 3 survivors; in [9] (regimen 1 (daily for 7 days), 346 mg/kg), 1 survivor; in data set [9] (regimen 1 (daily for 7 days), 432 mg/kg) it was 2 survivors; in data set [9] (regimen 1 (daily for 7 days), 720 mg/kg) it was 1 survivor. Also, the extension of lifespan in data set [9] (regimen 2 (day 1 only)) is 57%; in [9] (regimen 3 (days 1 and 4 only)) it was 120%; in data set [9] (regimen 4 (days 1, 4 and 7)), 197%.
On to `Nc1ccn([C@@H]2O[C@H](CO)[C@@H](O)[C@@H]2O[N+](=O)[O-])c(=O)n1` [Nitrara-C, 1-(2-O-nitro-β-D-arabinofuranosyl)cytosine], for which the “deamination by cytidine deaminase (in words)” value in data set [1] is given as “not deaminated by cytidine deaminase”. Moreover, in [1], the “Relative initial rate of deamination” value is less than 1. The IC50 in data set [3] (CCFR-CEM/ara-C (mutant), deficient in deoxycytidine kinase, 48 hours) turned out to be 1000 µM; in data set [4] (CCRF-CEM (T-cells), 48 hours) it was 0.6 µM; in data set [6] (MOLT-4 (T-cells), 48 hours), 0.4 µM; in [7] (RPMI-6410 (B-cells), 48 hours) it was 6 µM; in data set [11] (read-out: IC50 (molar conc. for 50% inhib. of cell growth), with cytidine deaminase), 0.6 µM; in data set [11] (read-out: IC50 (molar conc. for 50% inhib. of cell growth), without cytidine deaminase), 0.6 µM. In addition, in data set [5], the “decline in number of L1210 cells recovered from abdominal compartment” value is 90%. This molecule also returned a metabolised in data set [10] of less than 1%. Besides, in data set [8], the “dependence of cytotoxicity on phosphorylation (in words)” value is “cytotoxicity depends on phosphorylation”. For the same molecule, the “activity compared to ara-C (in words)” value in data set [8] (setting [12]) was “compares favorably to that of ara-C”. Further, the “cytotoxicity (in words)” value in data set [8] (setting [12]) is recorded as “highly cytotoxic to various human leukemia cells in culture”.
